Tests used:
[1] = test system: UN1 mAb binding to UN1-positive breast and gastric cancer tissues; test: Competition of UN1 mAb binding to cancer tissues; parameters: species or system human; conditions: Fig. S3
[2] = ELISA reactivity of immunized mice sera against G23 peptide; type: in vivo; conditions: sera of phage-immunized Balb/c mice
[3] = ELISA reactivity of immunized mice sera against scrambled peptide; type: in vivo; conditions: sera of phage-immunized Balb/c mice
[4] = test system: wild type phage; test: ELISA reactivity of immunized mice sera against wild type phage; type: in vivo; conditions: sera of phage-immunized Balb/c mice
[5] = Balb/c mice
[6] = test system: UN1 mAb; test: Surface plasmon resonance, UN1 mAb immobilized on CM5 chip; type: binding, murine; conditions: Biacore 3000, UN1 mAb immobilized on CM5 chip, peptide 0.1-2.5 mM
[7] = test system: W6/32 mAb (anti-human HLA class I antigen) binding; test: Competition of W6/32 mAb binding; type: cell-based; conditions: Fig. S2B
[8] = sera, days 7-10 from the 6th boost, 5 animals/group, colorimetric assay, mean ± SEM

Row | competition of W6/32 mAb binding [7] | Sequence | competition of UN1 mAb binding to breast and gastric cancer tissues [1] | serum reactivity against G23 peptide [2] | serum reactivity against scrambled peptide [3] | antibody response against the wild type phage [4] | health of immunized mice ([5]; 5 animals/group, i.p. phage immunization) | serum IL1-β, GSH and LDH levels versus normal ([5]; phage-immunized) | GSH [5, 8] [µM] | LDH [5, 8] [IU/L] | IL-1β ([5]; serum, days 7-10 from the 6th boost, 5 animals/group, ELISA, mean ± SEM) [pg/mL] | SPR signal [6]
1 | – | TPHTCKLLDECVPLW [phagotope 2/165] | competed the binding of UN1 mAb to UN1-positive breast and gastric cancer tissues | specific immune response against the UN1 mimotope G23 peptide | unreactive against the scrambled peptide | strong and comparable antibody response against the wild type phage | appeared healthy and did not show any ill-effect | in the range of normality | 10.1 ± 0.9 | 52.9 ± 15.4 | 58.2 ± 0.3 | –
2 | – | TCLAPDVPEPLSHCWAGETFKLA [scrambled peptide] | – | – | – | – | – | – | – | – | – | failed to give the SPR signal
3 | did not compete the binding of W6/32 mAb | SFAATPHTCKLLDECVPLWPAEG [G23] | competed the binding of UN1 mAb to UN1-positive breast and gastric cancer tissues | – | – | – | – | – | – | – | – | –

— publication PMC3954431 (Molecular cancer therapeutics, 2013)
